Reference: patent US5508437A, “Analogs of tyrosine sulfate or tyrosine phosphate containing peptides” (Hoffmann-La Roche Inc., priority 1993, dated 1996)
Starred links: 1 amine or outer side, 2 acyl side, 3 side chain; linkers in the order of their positions; H or OH if unused. Positions of bridges follow the written chain, without caps; N, C: chain ends. Non-standard residues stand in square brackets, D forms with d. Residues, ends and D or L forms follow the SMILES beside them. X4 = O=C([C@@H](Cc1ccc(Cc2nn[nH]n2)cc1)N[*:1])[*:2]; X9 = O=C(C(Cc1ccc(-c2nnn[nH]2)cc1)N[*:1])[*:2]; NMeF = CN[C@@H](Cc1ccccc1)C(=O)O; Nle = CCCC[C@H](N)C(=O)O

How the values were obtained:
[1] = system: Male Sprague-Dawley (CD) rats; test: Two-Meal Feeding Assay; type: in vivo; settings: rat
Procedure: Male Sprague-Dawley (CD) rats weighing 180-200 grams (Charres River Breeding Laboratories) were acclimated to a 12 h light/dark cycle (6 a.m. to 6 p.m.) in a room kept at 22° C. They were subsequently fasted for two days, weighed, placed in individual cages, and a four-day period of meal training was begun. During this time the rats were given ground laboratory chow (Purina Lab Chow) in jars for one hour from 9:00 a.m. until 10:00 a.m., the jars were removed from 10:00 a.m. to 12:00 p.m., and placed back in the cages from 12:00 until 1:00 p.m. Under this `1-2-1` meal feeding regime, most rats learn to eat approximately as much per day during the two hours they have access to food as rats which have food ad libitum over the entire 24-hour day. On the fourth day, the rats were weighed again, and any which lost more than five grams body weight were excluded from the test. The animals were then distributed into experimental (n=5 to 6) and control groups (n=6-12), but not matched for body weight.
Peptides of the invention were suspended either in saline, if soluble, or in 0.5% DMSO/saline, if insoluble, at concentrations of 0 to 320 μg/mL/kg body weight and were administered intraperitoneally 15 min before the first meal on day 5 of meal feeding. The rats were then given their meals as they had been during the previous four days, and the food cups were weighed both before and after each meal to determine food consumption. Food intake was expressed as a mean and standard error of the mean in percent of control values for the various groups. The treated groups were compared to the control groups by t-test analysis.

[2] = biological target: T1, rat pancreas (3H-CCK-8-(SO3 H) receptor binding) (Rattus norvegicus, UniProt P30551); test: In vitro receptor binding assay, 3H-CCK-8-(SO3H), rat pancreas homogenate; settings: 3H-CCK-8-(SO3H) 0.15 nM, 30 min at 25° C., rat pancreas homogenate; read-out: Rate Pancreas IC50 (concentration to inhibit 50% of specific 3H-CCK-8-(SO3H) binding)
T1 construct: pancreas approximately 0.100 mg protein in 1 mL final volume; from tissue; host or cells: rat pancreas membrane homogenate
T1 sequence (P30551 1-444): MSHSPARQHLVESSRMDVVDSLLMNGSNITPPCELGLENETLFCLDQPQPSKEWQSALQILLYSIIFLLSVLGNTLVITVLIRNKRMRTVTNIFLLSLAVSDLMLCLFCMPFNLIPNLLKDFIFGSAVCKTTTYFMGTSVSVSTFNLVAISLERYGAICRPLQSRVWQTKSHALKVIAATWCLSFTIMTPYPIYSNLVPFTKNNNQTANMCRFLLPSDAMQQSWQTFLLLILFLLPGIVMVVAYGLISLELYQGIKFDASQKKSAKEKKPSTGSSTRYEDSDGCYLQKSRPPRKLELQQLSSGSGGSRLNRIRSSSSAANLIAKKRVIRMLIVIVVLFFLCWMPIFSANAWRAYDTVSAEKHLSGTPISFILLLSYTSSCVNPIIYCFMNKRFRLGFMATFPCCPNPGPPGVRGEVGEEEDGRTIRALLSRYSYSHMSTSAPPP
Procedure: (§1) Frozen bovine striatum (approx. 5 g) or fresh rat pancreas (approx. 5 g) cleaned of fat and extraneous tissue were homogenized in HEPES buffer #1 (10 mM HEPES+130 mM NaCl+5 mM MgCl2, pH 7.4) using 35 parts buffer per 1 part tissue on a wet weight/volume basis (approx. 175 mL). The tissue was homogenized 2×for approx. 15 sec. at 0° C. using a Polytron homogenizer at a setting of 6. The tissue was isolated by centrifugation at 48,000× g for 10 min at 0° C. The resulting tissue pellet was resuspended in HEPES buffer #2 (10 mM HEPES+130 mM NaCl+5 mM MgCl2 +1 mg/L phenylmethanasulfonyl fluoride (PMSF)+200 mg/L Bacitracin): 1 part striatal tissue (original wet weight) per 80 parts buffer and 1 part pancreas tissue (original wet weight) per 500 to 1000 parts buffer.
(§2) Incubation was initiated by combining various concentrations of native CCK-8 or peptides of the invention with ^3 H-CCK-8-(SO3 H) (final conc.=0.15 nM) and tissue homogenate (striatum approximately 0.26 mg protein in 2 mL final volume; pancreas approximately 0.100 mg protein in 1 mL final volume). Samples were incubated for 30 min at 25° C. and the incubation terminated by pouring the mixture onto a pre-wetted Whatman GF/B filter on a Sandbeck Vacuum Filtration Manifold. The incubation tubes were washed with 2×3 mL of ice-cold HEPES Buffer #2 and the wash filtered through the GF/B filter. The filter was air dried for 10 min and then placed in a scintillation vial with 12 mL of DuPont/NEN Aquasol scintillation cocktail. The vials were shaken overnight and then counted using a liquid scintillation spectrometer. Non-specific binding was determined in the presence of 1 micromolar native CCK-8 and subtracted from all samples to determine specific binding. The concentration of peptide necessary to inhibit 50% of total specific H-CCK-8-(SO3 H) binding (IC50 value) was determined by log-probit analysis.

[3] = biological target: T2, Bovine Striatum (3H-CCK-8-(SO3 H) receptor binding) (Bos taurus, UniProt P79266); test: In vitro receptor binding assay, 3H-CCK-8-(SO3H), bovine striatum homogenate; settings: 3H-CCK-8-(SO3H) 0.15 nM, 30 min at 25° C., bovine striatum homogenate; read-out: Bovine Striatum IC50 (concentration to inhibit 50% of specific 3H-CCK-8-(SO3H) binding)
T2 construct: tissue homogenate (striatum approximately 0.26 mg protein in 2 mL final volume); from tissue; host or cells: bovine striatum membrane homogenate
T2 sequence (P79266 1-454): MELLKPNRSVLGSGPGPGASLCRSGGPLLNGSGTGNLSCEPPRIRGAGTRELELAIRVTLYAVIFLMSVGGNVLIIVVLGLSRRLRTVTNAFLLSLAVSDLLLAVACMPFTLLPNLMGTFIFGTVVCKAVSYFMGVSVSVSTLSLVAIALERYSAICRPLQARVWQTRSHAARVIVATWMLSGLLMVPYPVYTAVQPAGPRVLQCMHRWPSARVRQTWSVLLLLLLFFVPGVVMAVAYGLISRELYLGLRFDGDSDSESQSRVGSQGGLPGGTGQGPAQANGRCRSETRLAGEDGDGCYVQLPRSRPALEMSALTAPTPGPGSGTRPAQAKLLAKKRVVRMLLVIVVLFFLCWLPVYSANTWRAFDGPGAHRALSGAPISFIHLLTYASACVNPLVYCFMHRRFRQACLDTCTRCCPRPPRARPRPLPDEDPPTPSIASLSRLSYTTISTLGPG
Procedure: as §1, §2

[4] = dose 32 Microgram/kg intraperitoneally 15 min before first meal
[5] = dose 320 Microgram/kg intraperitoneally 15 min before first meal
[6] = dose 10 Microgram/kg intraperitoneally 15 min before first meal
[7] = dose 100 Microgram/kg intraperitoneally 15 min before first meal

SMILES	Food Intake 1st Meal [1, 4]	Food Intake 2nd Meal [1, 4]	Food Intake 1st Meal [1, 5]	Food Intake 2nd Meal [1, 5]	IC50 [2]	IC50 [3]	Food Intake 1st Meal [1, 6]	Food Intake 2nd Meal [1, 6]	Food Intake 1st Meal [1, 7]	Food Intake 2nd Meal [1, 7]
CSCC[C@@H]1NC(=O)[C@H](Cc2c[nH]c3ccccc23)NC(=O)CNC(=O)[C@@H](NC(=O)C(Cc2ccc(-c3nnn[nH]3)cc2)NC(C)=O)CCCCNC(=O)C[C@@H](C(=O)N(C)[C@@H](Cc2ccccc2)C(N)=O)NC1=O (some centres unmarked) [Example 57] (Ac-[X9]KGWMD[NMeF]-NH2; lactam 2-6)	75 ± 6 % of Control	160 ± 14 % of Control	36 ± 3 % of Control	148 ± 6 % of Control	1.1 µM	0.58 µM				
CCCC[C@H](NC(=O)[C@H](Cc1c[nH]c2ccccc12)NC(=O)CNC(=O)[C@H](CCCC)NC(=O)[C@@H](Cc1ccc(Cc2nn[nH]n2)cc1)NC(C)=O)C(=O)N[C@@H](CC(=O)O)C(=O)N(C)[C@@H](Cc1ccccc1)C(N)=O [Example 64, Ac-(D)-Phe(4-CH2 -tetrazole)-Nle-Gly-Trp-Nle-Asp-N-methyl-Phe-NH2] (Ac-[X4][Nle]GW[Nle]D[NMeF]-NH2)	79 ± 5 % of Control	148 ± 12 % of Control	21 ± 6 % of Control	207 % of Control			112 ± 10 % of Control	102 ± 9 % of Control	56 % of Control	173 ± 5 % of Control
